Measurements from US20130123365A1, “USE OF FTS AND ANALOGS TO TREAT NON-AUTOIMMUNE-ALLERGIC AND NON-ALLERGIC INFLAMMATORY CONDITIONS” (RAMOT AT TEL-AVIV UNIVERSITY LTD., priority 2010, published 2013).

Assays:
LAD2 cells [1] = experiment: TNF-α release from stimulated mast cells (ELISA); assay type: cell-based, human; details: different concentrations of FTS, 3 hours after stimulation, dose dependent, p<0.05
Procedure: (§1) The LAD2 MC, expressing functional FCεRI receptors, were established from bone marrow aspirates of a patient with MC leukemia and maintained as previously described. Transfection of LAD2 cells was performed with DMRIE-C (Invitrogen, Carlsbad, Calif.), and cells were studied 24 hours later. For IgE-mediated activation, cells were sensitized overnight with 100 ng/ml of human myeloma IgE-biotin (Calbiochem; Merck Darmstadt, Germany) and then stimulated with 100 ng/ml of streptavidin (Jackson Immuno-Research Laboratories, West Grove, Pa.). Degranulation was quantified 20 minutes after stimulation by assaying the release of ε-hexosaminidase, a preformed mediator present in the secretory granules of MC. Release of ε-hexosaminidase was measured spectrophotometrically by assaying the cleavage of its substrate p-nitrophenyl-N-acetyl-ε-D-glucosaminide. Degranulation was expressed as a percentage of total ε-hexosaminidase activity in the cells, obtained by lysis of the cells with 0.5% triton X-100. Supernatants obtained from MC stimulated for 3 to 6 hours were examined for the released PGD2 and TNF-α by a commercial ELISA kits, according to the manufacturer's instructions (Prostaglandin D2-MOX EIA Kit, Cayman Chemical Company, Ann Arbor, Mich., and TNF-α HS Elisa kit, R&D® Systems Inc., Minneapolis, Minn.).

N-Ras = target: T1, N-Ras (Homo sapiens, UniProt P01111); experiment: Ras activation imaging: GFP-Raf-1-RBD probe translocation in LAD2 cells after FCεRI cross-linking; assay type: cell-based; details: LAD2 cells expressing RFP-N-Ras, pretreated with 25 μM FTS
T1 construct: expressed in transfected cells; host or cells: LAD2 human mast cell line
T1 sequence (P01111 whole entry, species assumed): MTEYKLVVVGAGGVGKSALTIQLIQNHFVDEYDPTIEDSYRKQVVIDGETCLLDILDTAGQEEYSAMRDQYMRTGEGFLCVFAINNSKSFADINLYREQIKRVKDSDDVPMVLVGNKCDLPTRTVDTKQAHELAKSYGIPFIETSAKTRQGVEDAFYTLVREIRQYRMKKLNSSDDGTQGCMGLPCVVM
Procedure: The LAD2 MC, expressing functional FCεRI receptors, were established from bone marrow aspirates of a patient with MC leukemia and maintained as previously described. Transfection of LAD2 cells was performed with DMRIE-C (Invitrogen, Carlsbad, Calif.), and cells were studied 24 hours later.
as §1, with “For” for “The LAD2 MC, expressing functional FCεRI receptors, were established from bone marrow aspirates of a patient with MC leukemia and maintained as previously described. Transfection of LAD2 cells was performed with DMRIE-C (Invitrogen, Carlsbad, Calif.), and cells were studied 24 hours later. For”
Live cells were plated in 35-mm dishes containing a no. […]

Ras = experiment: Raf-1-RBD pull-down assay of GTP loaded Ras in stimulated LAD2 cells; assay type: cell-based, human; details: FCεRI cross-linking, pretreated with 25 μM FTS
Procedure: as §1, with “For” for “The LAD2 MC, expressing functional FCεRI receptors, were established from bone marrow aspirates of a patient with MC leukemia and maintained as previously described. Transfection of LAD2 cells was performed with DMRIE-C (Invitrogen, Carlsbad, Calif.), and cells were studied 24 hours later. For”, “Minn.). Methods of detecting activated Ras by pull-down assay and by SDS-PAGE immunoblotting were performed as previously described.” for “Minn.).”

LAD2 cells [2] = experiment: PGD2 release from stimulated mast cells (ELISA); assay type: cell-based, human; details: 6 hours after stimulation
Procedure: as §1

BALB/c female mice = experiment: IgE-dependent passive cutaneous anaphylaxis reaction, footpad swelling; assay type: in vivo; details: oral 100 mg/kg
Procedure: The study was approved by the Institutional Ethics Committee of Tel Aviv University. 8-10 weeks old BALB/c female mice were primed to express an IgE-dependent passive cutaneous anaphylaxis (PCA) reaction. Mice were lightly anaesthetized with ether and their left footpads were injected subcutaneously with 20 ul (20 ng) of IgE anti DNP. Their right footpads were injected with 20 ul of diluents. The next day the mice received an intraperitoneal injection of 100 ug of DNP30-40-HAS in saline. Footpad swelling was measured with an engineer's micrometer (Ozaki Mfg. Co., Itabashi, Tokyo). Footpad swelling was expressed as the difference in thickness before and after the challenge, measured at several time points after the challenge. FTS was orally administrated before the antigen challenge at 100 mg/kg as previously described.

LAD2 cells [3] = experiment: Mast cell degranulation (β-hexosaminidase secretion) after FCεRI cross-linking; assay type: cell-based, human; details: 20 minutes after stimulation
Procedure: as §1

CC(C)=CCCC(C)=CCCC(C)=CCSc1ccccc1C(=O)O [FTS, S-farnesylthiosalicylic acid]
TNF-α release (LAD2 cells [1]): appreciably inhibited
translocation of the probe for activated Ras (GFP-Raf-1-RBD) to the plasma membrane (N-Ras): completely blocked
levels of GTP loaded Ras (Ras): significantly attenuated
relative reduction in the amount of activated Ras (Ras; n=4): approximately 35%
release of PGD2 (LAD2 cells [2]; 25 μM FTS): not
release of PGD2 (LAD2 cells [2]; 50 μM FTS): inhibited
tissue (footpad) swelling (BALB/c female mice; three hours after antigen challenge): inhibited tissue swelling
attenuation of tissue (footpad) swelling (BALB/c female mice; three to six hours after antigen challenge): ~40%
immunological degranulation (β-hexosaminidase secretion) (LAD2 cells [3]; 25 μM FTS): did not significantly modify
immunological degranulation (β-hexosaminidase secretion) (LAD2 cells [3]; 50 μM FTS): did not significantly modify
